Reference: US20020137929A1, “1 - (3-heterocyclylphenyl) isothiourea, -isourea, -guanidine and -amidine herbicidal agents” (Intellectual Property Department, BASF Aktiengesellschaft, priority 1998, published 2002)

Columns and labels:
[1] = system: GLXMAW (Soybean, Williams); assay: Preemergence herbicidal evaluation; format: in vivo, Glycine max, (L.) Merr. cv Williams; conditions: rated 4-5 weeks after treatment
Outline: (§1)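 Test compound, dissolved in aqueous acetone, was sprayed over planted soil cups at an equivalent of about 0.0156 to 0.500 kg/ha; seeds had been mixed with potting soil. Greenhouse growth followed, with visual 0-9 scoring of injury at four to five weeks.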

[2] = system: IPOHE (Morningglory, Ivyleaf); assay: Preemergence herbicidal evaluation; format: in vivo, Ipomoea hederacea; conditions: rated 4-5 weeks after treatment
Outline: as §1

[3] = system: ECHORC (Watergrass (Calif.)); assay: Preemergence weed control under flooded paddy conditions; format: in vivo, Echinochloa oryzoides; conditions: rated 3-4 weeks after treatment
Outline: (§2)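 Herbicidal effect is scored visually on a 0-9 scale against an untreated control, three to four weeks after compounds are pipetted into the flood water (1.5 to 3 cm deep) over seeds planted in silt loam at 0.5 cm depth. Rates: about 0.0313 to 0.500 kg/ha.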

[4] = system: TRZAWR (Wheat, Winter, cv Riband); assay: Preemergence herbicidal evaluation; format: in vivo, Triticum aestivum; conditions: rated 4-5 weeks after treatment
Outline: as §1

CYPSE (Flatsedge) = assay: Preemergence weed control under flooded paddy conditions; format: in vivo, Cyperus serotinus; conditions: rated 3-4 weeks after treatment
Outline: (§3)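 Ratings on a 0-9 visual scale cover stand, vigor, malformation, size, chlorosis and overall appearance relative to a control, taken three to four weeks post-treatment. Application was into flood water over freshly sown silt loam at roughly 0.0313 to 0.500 kg/ha.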

CASOB (Sicklepod) [5] = assay: Postemergence herbicidal evaluation; format: in vivo, Cassia obtusifolia; conditions: postemergence
Outline: (§4)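 Each compound, dispersed in an acetone/water mix (50/50) carrying 0.5% TWEEN 20, is nozzle-sprayed at 40 psi on approximately two-week-old seedlings at about 0.0156–0.500 kg/ha. Plants are assessed 4–5 weeks afterward on a 0–9 scale relative to control; duplicate tests are averaged.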

CYPIR (Rice Flatsedge) = assay: Preemergence weed control under flooded paddy conditions; format: in vivo, Cyperus iria; conditions: rated 3-4 weeks after treatment
Outline: as §2

ZEAMX (Corn, Field) [6] = assay: Postemergence herbicidal evaluation; format: in vivo, Zea mays; conditions: postemergence
Outline: as §4

ZEAMX (Corn, Field) [7] = assay: Preemergence herbicidal evaluation; format: in vivo, Zea mays; conditions: rated 4-5 weeks after treatment
Outline: as §1

[8] = system: IPOHE (Morningglory, Ivyleaf); assay: Postemergence herbicidal evaluation; format: in vivo, Ipomoea hederacea; conditions: postemergence
Outline: as §4

MOOVA (Monochoria) = assay: Preemergence weed control under flooded paddy conditions; format: in vivo, Monochoria vaginalis; conditions: rated 3-4 weeks after treatment
Outline: as §3

SETVI (Foxtail, Green) = assay: Preemergence herbicidal evaluation; format: in vivo, Setaria viridis; conditions: rated 4-5 weeks after treatment
Outline: as §1

ECHCG (Barnyardgrass) = assay: Preemergence herbicidal evaluation; format: in vivo, Echinochloa crus-galli; conditions: rated 4-5 weeks after treatment
Outline: as §1

GALAP (Galium) = assay: Preemergence herbicidal evaluation; format: in vivo, Galium aparine; conditions: rated 4-5 weeks after treatment
Outline: as §1

ABUTH (Velvetleaf) = assay: Preemergence herbicidal evaluation; format: in vivo, Abutilon theophrasti; conditions: rated 4-5 weeks after treatment
Outline: as §1

CASOB (Sicklepod) [9] = assay: Preemergence herbicidal evaluation; format: in vivo, Cassia obtusifolia; conditions: rated 4-5 weeks after treatment
Outline: as §1

COC(=O)C(C)OC(=O)CN1C(=O)CSC1=Nc1cc(-n2c(=O)cc(C(F)(F)F)n(C)c2=O)c(F)cc1Cl (stereo not shown) [Compound 116, 2-{{2-Chloro-5-[3,6-dihydro-3-methyl-2,6-dioxo-4-(trifluoromethyl)-1(2H)-pyrimidinyl]-4-fluorophenyl}imino}-4-oxo-3-thiazolidineacetic acid, ester with methyl lactate]
1.0: Preemergence herbicidal rating GLXMAW ([1]; rate 0.0156 kg/ha) | Preemergence herbicidal rating GLXMAW ([1]; rate 0.0313 kg/ha) | Preemergence herbicidal rating GLXMAW ([1]; rate 0.1250 kg/ha) | Preemergence herbicidal rating IPOHE ([2]; rate 0.1250 kg/ha) | Preemergence herbicidal rating TRZAWR ([4]; rate 0.2500 kg/ha) | Herbicidal rating CASOB (CASOB (Sicklepod) [5]; rate 0.0158 kg/ha) | Herbicidal rating CASOB (CASOB (Sicklepod) [5]; rate 0.0315 kg/ha) | Herbicidal rating CASOB (CASOB (Sicklepod) [5]; rate 0.0630 kg/ha)
4.5: Herbicidal rating ZEAMX (ZEAMX (Corn, Field) [6]; rate 0.0158 kg/ha) | Herbicidal rating ZEAMX (ZEAMX (Corn, Field) [6]; rate 0.0315 kg/ha) | Herbicidal rating ZEAMX (ZEAMX (Corn, Field) [6]; rate 0.0630 kg/ha)
5.0: herbicidal effect rating, ECHORC ([3]; 0.0625 kg/ha) | ECHORC herbicidal effect rating ([3]; 0.2500 kg/ha)
6.0: ECHORC herbicidal effect rating ([3]; 0.1250 kg/ha) | herbicidal effect rating, CYPSE (CYPSE (Flatsedge); 0.0313 kg/ha) | herbicidal effect rating, CYPSE (CYPSE (Flatsedge); 0.0625 kg/ha) | herbicidal effect rating, CYPIR (CYPIR (Rice Flatsedge); 0.0625 kg/ha)
2.0: Preemergence herbicidal rating GLXMAW ([1]; rate 0.2500 kg/ha) | Preemergence herbicidal rating CASOB (CASOB (Sicklepod) [9]; rate 0.2500 kg/ha)
0.0: Preemergence herbicidal rating GLXMAW ([1]; rate 0.0625 kg/ha) | Preemergence herbicidal rating IPOHE ([2]; rate 0.0156 kg/ha) | Preemergence herbicidal rating IPOHE ([2]; rate 0.0313 kg/ha) | Preemergence herbicidal rating IPOHE ([2]; rate 0.0625 kg/ha) | herbicidal effect rating, ECHORC ([3]; 0.0313 kg/ha) | Preemergence herbicidal rating TRZAWR ([4]; rate 0.0156 kg/ha) | Preemergence herbicidal rating TRZAWR ([4]; rate 0.0313 kg/ha) | Preemergence herbicidal rating TRZAWR ([4]; rate 0.0625 kg/ha) | Preemergence herbicidal rating TRZAWR ([4]; rate 0.1250 kg/ha) | Preemergence herbicidal rating ZEAMX (ZEAMX (Corn, Field) [7]; rate 0.0156 kg/ha) | Preemergence herbicidal rating ZEAMX (ZEAMX (Corn, Field) [7]; rate 0.0313 kg/ha) | Preemergence herbicidal rating ZEAMX (ZEAMX (Corn, Field) [7]; rate 0.0625 kg/ha) | Preemergence herbicidal rating ZEAMX (ZEAMX (Corn, Field) [7]; rate 0.1250 kg/ha) | Preemergence herbicidal rating ZEAMX (ZEAMX (Corn, Field) [7]; rate 0.2500 kg/ha) | Preemergence herbicidal rating SETVI (SETVI (Foxtail, Green); rate 0.0156 kg/ha) | Preemergence herbicidal rating SETVI (SETVI (Foxtail, Green); rate 0.0313 kg/ha) | Preemergence herbicidal rating SETVI (SETVI (Foxtail, Green); rate 0.0625 kg/ha) | Preemergence herbicidal rating SETVI (SETVI (Foxtail, Green); rate 0.1250 kg/ha) | Preemergence herbicidal rating ECHCG (ECHCG (Barnyardgrass); rate 0.0156 kg/ha) | Preemergence herbicidal rating ECHCG (ECHCG (Barnyardgrass); rate 0.0313 kg/ha) | Preemergence herbicidal rating ECHCG (ECHCG (Barnyardgrass); rate 0.0625 kg/ha) | Preemergence herbicidal rating ECHCG (ECHCG (Barnyardgrass); rate 0.1250 kg/ha) | Preemergence herbicidal rating ECHCG (ECHCG (Barnyardgrass); rate 0.2500 kg/ha) | Preemergence herbicidal rating GALAP (GALAP (Galium); rate 0.0156 kg/ha) | Preemergence herbicidal rating GALAP (GALAP (Galium); rate 0.0313 kg/ha) | Preemergence herbicidal rating GALAP (GALAP (Galium); rate 0.0625 kg/ha) | Preemergence herbicidal rating GALAP (GALAP (Galium); rate 0.1250 kg/ha) | Preemergence herbicidal rating ABUTH (ABUTH (Velvetleaf); rate 0.0156 kg/ha) | Preemergence herbicidal rating ABUTH (ABUTH (Velvetleaf); rate 0.0313 kg/ha) | Preemergence herbicidal rating CASOB (CASOB (Sicklepod) [9]; rate 0.0156 kg/ha) | Preemergence herbicidal rating CASOB (CASOB (Sicklepod) [9]; rate 0.0313 kg/ha) | Preemergence herbicidal rating CASOB (CASOB (Sicklepod) [9]; rate 0.0625 kg/ha) | Preemergence herbicidal rating CASOB (CASOB (Sicklepod) [9]; rate 0.1250 kg/ha)
4.0: Preemergence herbicidal rating ABUTH (ABUTH (Velvetleaf); rate 0.0625 kg/ha)
7.0: CYPSE herbicidal effect rating (CYPSE (Flatsedge); 0.1250 kg/ha) | CYPIR herbicidal effect rating (CYPIR (Rice Flatsedge); 0.1250 kg/ha) | CYPIR herbicidal effect rating (CYPIR (Rice Flatsedge); 0.2500 kg/ha) | herbicidal effect rating, MOOVA (MOOVA (Monochoria); 0.0313 kg/ha) | Preemergence herbicidal rating GALAP (GALAP (Galium); rate 0.2500 kg/ha)
9.0: Herbicidal rating IPOHE ([8]; rate 0.0158 kg/ha) | Herbicidal rating IPOHE ([8]; rate 0.0315 kg/ha) | Herbicidal rating IPOHE ([8]; rate 0.0630 kg/ha) | herbicidal effect rating, MOOVA (MOOVA (Monochoria); 0.0625 kg/ha) | MOOVA herbicidal effect rating (MOOVA (Monochoria); 0.1250 kg/ha) | MOOVA herbicidal effect rating (MOOVA (Monochoria); 0.2500 kg/ha) | Preemergence herbicidal rating ABUTH (ABUTH (Velvetleaf); rate 0.1250 kg/ha) | Preemergence herbicidal rating ABUTH (ABUTH (Velvetleaf); rate 0.2500 kg/ha)
8.0: CYPSE herbicidal effect rating (CYPSE (Flatsedge); 0.2500 kg/ha)
3.0: Preemergence herbicidal rating IPOHE ([2]; rate 0.2500 kg/ha) | herbicidal effect rating, CYPIR (CYPIR (Rice Flatsedge); 0.0313 kg/ha) | Preemergence herbicidal rating SETVI (SETVI (Foxtail, Green); rate 0.2500 kg/ha)
